Reference: patent publication US20050118249A1, “Lipid carrier compositions and methods for improved drug retention” (priority 2001, published 2005)
Each block holds one compound with its values, some of them ahead of it.

Columns and labels:
[1] = Retention of FUDR in DSPC/DSPG/Chol liposomes in blood after intravenous injection; format: in vivo, Balb/c mice; conditions: DSPC/DSPG/Chol (70:20:10) liposomes; intraliposomal solution of less than 500 mOsm/kg; i.v., 1, 4, 24 h
Method: DSPC/DSPG/Chol (70:20:10 mole ratio) were prepared following the methods of Example 1 except that lipid films were hydrated in either saline or Cu(II)gluconate, pH 7.4 containing 25 mg/mL FUDR at 70° C. Cu(II)gluconate was added at either 100 or 200 mM (321 and 676 mOsm/kg, respectively) and the pH was adjusted to 7.4 by addition of triethanolamine (TEA). Trace amounts of 14C-CHE and ^3H-FUDR were used as lipid and drug markers, respectively. The resulting MLVs were extruded at 75° C. through two stacked 100 nm pore size filters for a total of ten passes. Liposomes were buffer exchanged into HBS, pH 7.4 using a hand-held tangential flow column. A total lipid dose of 3.3 μmoles (165 μmoles/kg) was administered to female Balb/c mice in a final volume of 200 μL immediately after preparation (within 1-2 hrs). Blood samples were removed by cardiac puncture 1, 4 and 24-hours post administration (3 mice per time point). Lipid and FUDR levels were determined using liquid scintillation counting and values were reported as the mean±SD.

[2] = Retention of daunorubicin in liposomes in blood after intravenous injection (time course); format: in vivo, Balb/c mice; conditions: DSPC/DSPE-PEG2000 (95:5) liposomes; internal citrate 600 mOsm/kg (300 mM) in relation to 300 mOsm/kg (150 mM); i.v., 1, 4, 24 h
Method: DSPC/DSPE-PEG2000 liposomes (95:5 mole ratio) containing 150 or 300 mM citrate (300 or 600 mOsm/kg), pH 4 and DSPC/Cholesterol (55:45 mole ratio) and DSPC/Cholesterol/DSPE-PEG2000 (50:45:5 mole ratio) liposomes containing 150 mM citrate, pH 4 were prepared as described in Example 1. Liposomes were subsequently combined with daunorubicin at a 0.2:1 drug to lipid mole ratio. To facilitate drug loading, the mixtures were incubated at 40° C. for 60 minutes.
The resulting daunorubicin-containing liposomes were administered to Balb/c female mice at a lipid dose of 165 μmoles/kg as detailed above. Blood samples were removed at 1, 4 and 24 hours post administration by cardiac puncture (3 mice per time point). Lipid levels were determined by liquid scintillation counting. Daunorubicin was extracted from plasma samples and quantified as follows: a defined volume of plasma was adjusted to 200 μL with distilled water followed by addition of 600 μL of distilled water, 100 μL of 10% SDS and 100 μL of 10 mM H2SO4. This solution was mixed and 2 mLs of 1:1 isopropanol/chloroform was added followed by vortexing. […] The bottom organic layer was removed and assayed for fluorescence intensity at 500 nm as the excitation wavelength (2.5 nm bandpass) and 550 nm as an emission wavelength (10 nm bandpass) and using an absorbance wavelength of 480 nm.

[3] = Retention of daunorubicin in liposomes with varying internal citrate, 4 hours after injection; format: in vivo, Balb/c mice; conditions: DSPC/DSPE-PEG2000 (95:5) liposomes; 100, 150 and 200 mM internal citrate (about 200, 300, 400 mOsm/kg); 4 hours after i.v. injection
Method: DSPC/DSPE-PEG2000 (95:5 mole ratio) liposomes containing the non-exchangeable marker 3H-CHE were prepared as described in Example 1, except that lipid films were hydrated with 100, 150, 200, 250 or 300 mM citrate, pH 4.0 (corresponding to osmolarity levels of about 200, 300, 400, 500 or 600 mOsm/kg, respectively).
Daunorubicin was loaded at a 0.2:1 drug-to-lipid mole ratio with the methods detailed above into each of the five liposomal formulations. The resulting liposomes were administered to female Balb/c mice at a lipid dose of 165 μmoles/kg in a final volume of 200 μL immediately after preparation (within 1-2 hrs). Blood samples were removed 4 hours after administration by cardiac puncture (3 mice per time point). Lipid and daunorubicin levels were determined as described previously and percent initial drug-to-lipid ratio was reported as the mean±SD.

[4] = Drug-to-lipid ratio of irinotecan before and after freezing of dual-loaded DSPC/DSPG liposomes; format: physicochemical; conditions: 0-20 mole % cholesterol, with FUDR, 250 mM CuSO4 inside (<500 mOsm/kg), frozen at -20° C. and -70° C. for 24 hours
Method: FUDR and irinotecan were loaded into cholesterol-free liposomes containing a low osmolarity internal solution and drug retention and liposome size were measured prior to and after freezing. DSPC/DSPG liposomes containing 0-20 mole % cholesterol, 20 mole % DSPG and passively entrapped FUDR were prepared as described previously and hydrated in 250 mM CuSO4 (<500 mOsm/kg). The MLVs were extruded at 70° C. as detailed above and buffered exchanged into saline and then into 300 mM sucrose, 20 mM Hepes, 30 mM EDTA (SHE), pH 7.4 using a hand-held tangential flow column. The sample was then further exchanged into 300 mM sucrose, 20 mM Hepes, pH 7.4 to remove residual EDTA. The liposomes were subsequently loaded with irinotecan at a drug-to-lipid mole ratio of 0.1:1 by mixing the two solutions at 50° C. for five minutes. The dual-loaded liposomes were then buffered exchanged into HBS using tangential flow to remove any unencapsulated drug.
The influence of freezing on liposome stability was determined by freezing the liposomes at either −20° C. or −70° C. for 24 hours. […] Lipid and FUDR levels were quantified using liquid scintillation and absorbance at 370 nm was used to determine irinotecan concentration. Particle sizing of the liposomes was also determined prior to and after freezing using quasi-elastic light scattering.

[5] = Retention of idarubicin in liposomes with varying internal citrate after intravenous injection; format: in vivo, Balb/c mice; conditions: DSPC/DSPE-PEG2000 (95:5) liposomes; 300 mM citrate (>500 mOsm/kg) in relation to 100 and 150 mM (<500 mOsm/kg); i.v., 0.5-24 h
Method: DSPC/DSPE-PEG2000 (95:5 mole ratio) liposomes prepared with 100, 150 and 300 mM citrate were also loaded with idarubicin at a drug to lipid mole ratio of 0.25:1. Loading was facilitated by incubating the drug and liposomes at 37° C. for 60 minutes. Liposomes were administered to Balb/c mice as indicated and blood samples were removed by cardiac puncture at 0.5, 1, 2, 4 and 24-hours post administration (3 mice per time point). Idarubicin concentration was quantitated using fluorescence intensity at 485 nm as the excitation wavelength and 535 nm as an emission wavelength and using an absorbance wavelength of 482 nm.

[6] = Retention of vincristine in liposomes in blood after intravenous injection; format: in vivo, Balb/c mice; conditions: i.v., 1, 4, 24 h
Method: Solutions of lipids in chloroform were combined to give a 95:5 molar ratio of DSPC/DSPE-PEG2000 or a 55:45 molar ratio of DSPC/Cholesterol, with trace amounts of ^14C-cholesteryl hexadecyl ether (^14C-CHE). The resulting mixtures were dried under a stream of nitrogen gas and placed in a vacuum pump overnight. The samples were hydrated at 70° C. with either 300 mM citrate, pH 4.0 (about 600 milliosmoles/kg (mOsm/kg)) or 150 mM citrate buffer, pH 4.0 (about 300 mOsm/kg) and passed through an extrusion apparatus (Northern Lipids Inc., Vancouver, BC) ten times with two 100 nm pore size polycarbonate filters at 70° C. Average liposome size was determined by quasi-elastic light scattering using a NICOMP 370 submicron particle sizer operating at a wavelength of 632.8 nm. The resulting liposomes were applied to a Sephadex G50 column equilibrated with HBS (20 mM HEPES, 150 mM NaCl, about 320 mOsm/kg), pH 7.45 to exchange the external liposomal buffer. […]
Vincristine-containing liposomes were administered intravenously to Balb/c mice at a lipid dose of 165 μmoles/kg in a final volume of 200 μL immediately after preparation (within 1-2 hrs). […] Lipid and vincristine levels were quantified by liquid scintillation counting and the values were reported as the mean ± standard deviation (SD).

retention of irinotecan after freezing (drug-to-lipid ratio) [4]: effectively retained
Structure (SMILES): CCc1c2c(nc3ccc(OC(=O)N4CCC(N5CCCCC5)CC4)cc13)-c1cc3c(c(=O)n1C2)COC(=O)[C@]3(O)CC [irinotecan]

retention of vincristine (percent initial vincristine-to-lipid weight ratio in the blood) ([6]; DSPC/DSPE-PEG2000 (95:5 mole ratio) liposomes, internal citrate 300 mOsm/kg (150 mM) compared to 600 mOsm/kg (300 mM)): significantly enhanced
Structure (SMILES): CC[C@]1(O)C[C@H]2CN(CCc3c([nH]c4ccccc34)[C@@](C(=O)OC)(c3cc4c(cc3OC)N(C=O)[C@H]3[C@@](O)(C(=O)OC)[C@H](OC(C)=O)[C@]5(CC)C=CCN6CC[C@]43[C@@H]65)C2)C1 [vincristine]
retention of vincristine (percent initial vincristine-to-lipid weight ratio in the blood) ([6]; DSPC/cholesterol (55:45 mole ratio) liposomes, 150 mM vs 300 mM internal citrate): independent of the osmolarity of the intraliposomal solution

Continued, compound first:

Structure (SMILES): O=c1[nH]c(=O)n([C@H]2C[C@H](O)[C@@H](CO)O2)cc1F [FUDR, Floxuridine]
FUDR retention (FUDR levels remaining in the blood) [1]: optimally retained

Structure (SMILES): COc1cccc2c1C(=O)c1c(O)c3c(c(O)c1C2=O)C[C@@](O)(C(C)=O)C[C@@H]3O[C@H]1C[C@H](N)[C@H](O)[C@H](C)O1 [daunorubicin]
daunorubicin retention (percent initial daunorubicin-to-lipid ratio remaining in the blood) [2]: compromised
retention of daunorubicin (percent initial daunorubicin-to-lipid ratio remaining in the blood) [3]: optimal retention

Structure (SMILES): CC(=O)[C@]1(O)Cc2c(O)c3c(c(O)c2[C@@H](O[C@H]2C[C@H](N)[C@H](O)[C@H](C)O2)C1)C(=O)c1ccccc1C3=O [idarubicin]
idarubicin retention (idarubicin-to-lipid mole ratio in the blood) [5]: significantly decreased
